Some test systems named below: HCT-116 colon; UO-31 renal; M14 melanoma; IGROV1 ovarian; SF-539 CNS; MDA-MB-231 breast; NCI-H226 lung; LOX IMVI melanoma; UACC-62 melanoma; SF-295 CNS; SR leukemia; PC-3 prostate; K-562 leukemia; SNB-19 CNS; SW-620 colon; OVCAR-5 ovarian; A549 NSCLC; SK-MEL-28 melanoma.
Holding throughout (experiment): NCI tumour cell line growth inhibition, 48 h

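Cultured in 96-well plates, cells were exposed to test compound for 48 hours across five concentrations. TGI denotes the concentration required for complete inhibition of growth.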 Where a SMILES comes first, the peptide text is derived from it. [ ]: non-standard residue; d: D form. The star is where a group is joined. Bn2Val = CC(C)[C@@H](C(=O)*)N(Cc1ccccc1)Cc1ccccc1; NH(3,4-diMeO-benzyl) = COc1ccc(CN*)cc1OC; NMeV = CN[C@H](C(=O)O)C(C)C

As for `C#CCCOC(=O)c1ccccc1OC(C)=O`, the TGI in the assay with HCT-116 colon, in the assay with UO-31 renal, in the assay on M14 melanoma, with IGROV1 ovarian, with SF-539 CNS and in the assay on MDA-MB-231 breast was more than 100 µM throughout. For the same compound, the TGI with NCI-H226 lung, with LOX IMVI melanoma, in the assay on UACC-62 melanoma, in the assay with SF-295 CNS, in the assay with SR leukemia and in the assay on PC-3 prostate was more than 100 µM in each case. The TGI in the assay on K-562 leukemia, with SNB-19 CNS, in the assay on SW-620 colon and with OVCAR-5 ovarian was more than 100 µM throughout.
Turning to `COc1cc2c(cc1OC)C(=O)/C(=C/c1ccc([N+](=O)[O-])cc1)CC2`, the TGI with HCT-116 colon, in the assay on A549 NSCLC, with M14 melanoma, with SK-MEL-28 melanoma, in the assay with IGROV1 ovarian and in the assay on SF-539 CNS was more than 10 µM each time. The TGI in the assay with MDA-MB-231 breast, with NCI-H226 lung, with LOX IMVI melanoma, in the assay on UACC-62 melanoma, in the assay on SF-295 CNS and with SR leukemia was more than 10 µM in each case. The TGI in the assay with PC-3 prostate, in the assay on K-562 leukemia, in the assay on SNB-19 CNS, in the assay on SW-620 colon and with OVCAR-5 ovarian was more than 10 µM throughout.
Regarding `O=[N+]([O-])c1ccc(C(=Nc2ccccc2)SSC(=Nc2ccccc2)c2ccc([N+](=O)[O-])o2)o1`, the TGI in the assay with HCT-116 colon is 2.95 µM; in the assay with UO-31 renal, 2.82 µM; in the assay with M14 melanoma, 4.85 µM; in the assay with SK-MEL-28 melanoma, 7.04 µM; in the assay with IGROV1 ovarian, 3.51 µM; with SF-539 CNS, 4.01 µM. Further, the TGI was 7.92 µM with MDA-MB-231 breast; 56.4 µM in the assay with NCI-H226 lung; 3.83 µM in the assay with LOX IMVI melanoma; 3.4 µM with UACC-62 melanoma; 8.31 µM with SF-295 CNS; more than 100 µM in the assay on SR leukemia. The TGI came out at 4.03 µM with PC-3 prostate, 4.07 µM in the assay with SNB-19 CNS and 5.04 µM with OVCAR-5 ovarian.
With `COc1ccc(CNC(=O)[C@@H]2CCCN2C(=O)[C@@H]2CCCN2C(=O)[C@H](C(C)C)N(C)C(=O)[C@@H](NC(=O)[C@H](C(C)C)N(Cc2ccccc2)Cc2ccccc2)C(C)C)cc1OC` (Bn2Val-V[NMeV]PP-{NH(3,4-diMeO-benzyl)}), the TGI in the assay with HCT-116 colon was found to be 29.5 µM; in the assay with A549 NSCLC, 38.4 µM; in the assay with M14 melanoma, 29.4 µM; in the assay on SK-MEL-28 melanoma, 38.5 µM; in the assay with IGROV1 ovarian, 13.4 µM; with SF-539 CNS it was 34 µM. The TGI is 42.3 µM in the assay on MDA-MB-231 breast; 33.4 µM in the assay on NCI-H226 lung; 16.4 µM in the assay on LOX IMVI melanoma; 29.7 µM in the assay with UACC-62 melanoma; 29.9 µM with SF-295 CNS; more than 100 µM with SR leukemia. Moreover, the TGI with PC-3 prostate was 30.8 µM; in the assay with K-562 leukemia, more than 100 µM; with SNB-19 CNS it was 30.7 µM; in the assay on SW-620 colon, more than 60.8 µM; in the assay with OVCAR-5 ovarian it was 34 µM.
On to `CC1(O)Oc2ccc3ccccc3c2C=C1C(N)=O` (stereo unspecified), for which the TGI in the assay with HCT-116 colon, in the assay with UO-31 renal, with M14 melanoma, with SK-MEL-28 melanoma, in the assay with IGROV1 ovarian and with SF-539 CNS was more than 100 µM in each case. In addition, the TGI was 93.8 µM in the assay on MDA-MB-231 breast; more than 100 µM with LOX IMVI melanoma; more than 100 µM with UACC-62 melanoma; more than 100 µM with SF-295 CNS; more than 100 µM in the assay on SR leukemia; more than 100 µM with PC-3 prostate. Moreover, the TGI in the assay on K-562 leukemia, in the assay on SNB-19 CNS and with SW-620 colon was more than 100 µM each time.
Regarding `CC(=O)CCC[C@H](C)[C@@H](O)[C@@H]1O[C@H]([C@@]2(C)CCC(=O)O2)C[C@H]1C(=O)O`, the TGI in the assay with HCT-116 colon, in the assay with UO-31 renal, in the assay on A549 NSCLC, in the assay with SK-MEL-28 melanoma, in the assay with IGROV1 ovarian and in the assay on SF-539 CNS was more than 100 µM throughout. Moreover, the TGI in the assay with MDA-MB-231 breast, with NCI-H226 lung, with LOX IMVI melanoma, in the assay with UACC-62 melanoma, in the assay with SF-295 CNS and in the assay on SR leukemia was more than 100 µM throughout. Also, the TGI with PC-3 prostate, with K-562 leukemia, with SNB-19 CNS, in the assay with SW-620 colon and with OVCAR-5 ovarian was more than 100 µM in each case.
Consider `Cc1ccc(/C=N/NS(=O)(=O)c2ccc(/C=C3\NC(=O)NC3=O)cc2)cc1`, for which the TGI in the assay with HCT-116 colon, with UO-31 renal, in the assay with A549 NSCLC, with M14 melanoma, with SK-MEL-28 melanoma and with IGROV1 ovarian was more than 100 µM each time. Moreover, the TGI in the assay with MDA-MB-231 breast, with NCI-H226 lung, in the assay with LOX IMVI melanoma, with UACC-62 melanoma, in the assay on SF-295 CNS and with SR leukemia was more than 100 µM each time. The TGI with PC-3 prostate, with K-562 leukemia, with SNB-19 CNS, in the assay with SW-620 colon and in the assay on OVCAR-5 ovarian was more than 100 µM in each case.
Regarding `CCOC(=O)c1cc(C#N)[nH]c1-c1ccsc1`, the TGI was more than 100 µM in the assay on HCT-116 colon; more than 100 µM with A549 NSCLC; more than 100 µM with M14 melanoma; more than 100 µM in the assay on SK-MEL-28 melanoma; more than 100 µM with IGROV1 ovarian; 77.1 µM in the assay with SF-539 CNS. The TGI with MDA-MB-231 breast was more than 100 µM; with NCI-H226 lung, more than 100 µM; in the assay on LOX IMVI melanoma, more than 100 µM; in the assay with UACC-62 melanoma, more than 100 µM; in the assay with SF-295 CNS, more than 100 µM; in the assay with SR leukemia, 35.5 µM. The TGI is 70.4 µM in the assay on PC-3 prostate; 93 µM in the assay on K-562 leukemia; more than 100 µM in the assay with SNB-19 CNS; more than 100 µM in the assay with SW-620 colon; more than 100 µM in the assay with OVCAR-5 ovarian.

For the origin of these results see PubChem BioAssay (NCI).
